Source: ChEMBL document CHEMBL5058541, “EUbOPEN Chemogenomics Library 2 (NanoBRET)” (2022)

Legend:
[1] = molecular target: T1, Peripheral plasma membrane protein CASK (Homo sapiens) (UniProt O14936); assay: (§1) Cellular target engagement assay with: CASK; set-up: cell line HEK293T; conditions: HEK-293T, NanoBRET Ttracer Tracer K5
T1 sequence (whole entry): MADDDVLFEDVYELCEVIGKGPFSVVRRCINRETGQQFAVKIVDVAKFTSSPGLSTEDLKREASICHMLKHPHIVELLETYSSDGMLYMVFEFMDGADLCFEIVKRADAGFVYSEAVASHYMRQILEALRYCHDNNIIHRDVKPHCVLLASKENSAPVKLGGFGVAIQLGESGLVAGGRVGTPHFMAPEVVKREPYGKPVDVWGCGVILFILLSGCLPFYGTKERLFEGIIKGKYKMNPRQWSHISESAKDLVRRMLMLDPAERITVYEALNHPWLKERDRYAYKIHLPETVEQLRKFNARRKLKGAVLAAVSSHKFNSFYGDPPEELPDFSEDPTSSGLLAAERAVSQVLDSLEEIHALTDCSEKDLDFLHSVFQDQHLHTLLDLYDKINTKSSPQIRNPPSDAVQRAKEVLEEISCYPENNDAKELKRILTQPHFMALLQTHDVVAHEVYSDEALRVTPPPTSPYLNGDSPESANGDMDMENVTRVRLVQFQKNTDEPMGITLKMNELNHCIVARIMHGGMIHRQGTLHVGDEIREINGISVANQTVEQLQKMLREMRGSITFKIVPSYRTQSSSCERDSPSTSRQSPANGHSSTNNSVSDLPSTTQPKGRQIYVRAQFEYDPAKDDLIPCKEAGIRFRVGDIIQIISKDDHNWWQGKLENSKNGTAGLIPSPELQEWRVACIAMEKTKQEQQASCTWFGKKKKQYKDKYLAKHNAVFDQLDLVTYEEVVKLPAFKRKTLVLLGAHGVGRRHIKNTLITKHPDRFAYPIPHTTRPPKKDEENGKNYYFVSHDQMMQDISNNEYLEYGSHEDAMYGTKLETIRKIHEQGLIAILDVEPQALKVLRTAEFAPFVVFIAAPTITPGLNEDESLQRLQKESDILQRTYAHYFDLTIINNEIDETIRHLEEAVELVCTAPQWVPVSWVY

[2] = molecular target: T2, Peripheral plasma membrane protein CASK (Homo sapiens, UniProt O14936); assay: as §1; set-up: species or system HEK-293T; cell line HEK293T
T2 sequence (O14936 whole entry): T1 sequence (whole entry)

Peregrin (Homo sapiens) [3] = molecular target: T3, Peregrin (Homo sapiens) (UniProt P55201); conditions: Compound concentration 20.0 uM, Protein concentration 2.0 uM, Result type QC Liability
T3 sequence (whole entry): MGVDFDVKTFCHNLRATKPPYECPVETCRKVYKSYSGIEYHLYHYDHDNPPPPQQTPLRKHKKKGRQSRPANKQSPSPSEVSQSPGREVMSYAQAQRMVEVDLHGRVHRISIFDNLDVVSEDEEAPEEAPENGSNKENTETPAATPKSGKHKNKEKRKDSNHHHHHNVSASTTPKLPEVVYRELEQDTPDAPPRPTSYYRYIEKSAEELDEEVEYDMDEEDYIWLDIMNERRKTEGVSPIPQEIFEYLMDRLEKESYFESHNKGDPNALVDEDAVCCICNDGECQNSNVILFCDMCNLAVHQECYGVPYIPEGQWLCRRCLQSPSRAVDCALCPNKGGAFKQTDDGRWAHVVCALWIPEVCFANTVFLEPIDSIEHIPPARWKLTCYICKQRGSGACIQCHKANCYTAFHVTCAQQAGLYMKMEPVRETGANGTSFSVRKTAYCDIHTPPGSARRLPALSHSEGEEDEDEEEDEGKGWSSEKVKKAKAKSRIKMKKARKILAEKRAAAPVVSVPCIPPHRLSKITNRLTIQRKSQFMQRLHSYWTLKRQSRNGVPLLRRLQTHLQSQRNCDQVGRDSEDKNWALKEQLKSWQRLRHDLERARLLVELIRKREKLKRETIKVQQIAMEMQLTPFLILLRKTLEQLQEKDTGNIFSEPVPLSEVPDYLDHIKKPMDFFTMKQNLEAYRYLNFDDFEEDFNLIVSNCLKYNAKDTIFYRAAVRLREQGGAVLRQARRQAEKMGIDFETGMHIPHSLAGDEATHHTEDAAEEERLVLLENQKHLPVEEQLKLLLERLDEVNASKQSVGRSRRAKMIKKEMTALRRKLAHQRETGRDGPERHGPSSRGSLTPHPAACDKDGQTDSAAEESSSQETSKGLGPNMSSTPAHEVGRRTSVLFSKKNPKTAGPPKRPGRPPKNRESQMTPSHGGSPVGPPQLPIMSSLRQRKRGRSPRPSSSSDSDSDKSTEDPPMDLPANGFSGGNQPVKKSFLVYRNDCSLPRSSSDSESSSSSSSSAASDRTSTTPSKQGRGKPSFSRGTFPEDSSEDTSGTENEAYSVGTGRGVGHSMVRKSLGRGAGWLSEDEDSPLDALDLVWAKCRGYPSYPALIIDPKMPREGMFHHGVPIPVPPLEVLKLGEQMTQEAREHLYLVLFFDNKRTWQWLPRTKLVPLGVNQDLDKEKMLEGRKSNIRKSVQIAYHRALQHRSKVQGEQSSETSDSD

[4] = molecular target: Fibroblast growth factor receptor 3 (Homo sapiens) (UniProt P22607); conditions: Compound concentration 20.0 uM, Protein concentration 2.0 uM, Result type QC Liability
Sequence of Fibroblast growth factor receptor 3 (Homo sapiens) (P22607 23-806 limits assumed): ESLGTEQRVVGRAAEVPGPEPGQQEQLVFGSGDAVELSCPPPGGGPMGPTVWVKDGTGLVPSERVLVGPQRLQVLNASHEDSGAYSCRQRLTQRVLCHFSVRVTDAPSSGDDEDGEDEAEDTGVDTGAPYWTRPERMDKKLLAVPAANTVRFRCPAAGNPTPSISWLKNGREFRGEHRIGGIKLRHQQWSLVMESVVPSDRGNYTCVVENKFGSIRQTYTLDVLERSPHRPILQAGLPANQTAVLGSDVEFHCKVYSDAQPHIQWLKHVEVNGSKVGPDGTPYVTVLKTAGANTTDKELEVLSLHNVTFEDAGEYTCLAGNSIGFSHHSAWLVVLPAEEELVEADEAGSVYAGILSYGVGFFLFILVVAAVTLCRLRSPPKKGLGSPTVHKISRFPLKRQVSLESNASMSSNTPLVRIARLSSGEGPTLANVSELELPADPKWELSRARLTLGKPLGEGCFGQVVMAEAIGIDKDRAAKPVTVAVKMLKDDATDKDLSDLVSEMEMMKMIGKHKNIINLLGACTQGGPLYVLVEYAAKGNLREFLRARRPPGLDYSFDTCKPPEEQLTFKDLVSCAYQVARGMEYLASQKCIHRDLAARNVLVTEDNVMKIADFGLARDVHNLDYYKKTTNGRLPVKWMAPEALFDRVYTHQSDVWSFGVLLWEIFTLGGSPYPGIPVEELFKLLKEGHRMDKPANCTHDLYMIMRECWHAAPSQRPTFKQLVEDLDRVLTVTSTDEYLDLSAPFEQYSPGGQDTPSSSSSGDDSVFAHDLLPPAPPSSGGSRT
Description: Thermal Shift Assay. Domain: start/stop: P449-E759

Peregrin (Homo sapiens) [5] = molecular target: T3, Peregrin (Homo sapiens); conditions: Compound concentration 20.0 uM, Protein concentration 2.0 uM, Result type QC Liability; remark: listed apart in the source
[6] = molecular target: SRSF protein kinase 1 (Homo sapiens) (UniProt Q96SB4); conditions: HEK-293T, NanoBRET Ttracer MW375
Sequence of SRSF protein kinase 1 (Homo sapiens) (Q96SB4 whole entry): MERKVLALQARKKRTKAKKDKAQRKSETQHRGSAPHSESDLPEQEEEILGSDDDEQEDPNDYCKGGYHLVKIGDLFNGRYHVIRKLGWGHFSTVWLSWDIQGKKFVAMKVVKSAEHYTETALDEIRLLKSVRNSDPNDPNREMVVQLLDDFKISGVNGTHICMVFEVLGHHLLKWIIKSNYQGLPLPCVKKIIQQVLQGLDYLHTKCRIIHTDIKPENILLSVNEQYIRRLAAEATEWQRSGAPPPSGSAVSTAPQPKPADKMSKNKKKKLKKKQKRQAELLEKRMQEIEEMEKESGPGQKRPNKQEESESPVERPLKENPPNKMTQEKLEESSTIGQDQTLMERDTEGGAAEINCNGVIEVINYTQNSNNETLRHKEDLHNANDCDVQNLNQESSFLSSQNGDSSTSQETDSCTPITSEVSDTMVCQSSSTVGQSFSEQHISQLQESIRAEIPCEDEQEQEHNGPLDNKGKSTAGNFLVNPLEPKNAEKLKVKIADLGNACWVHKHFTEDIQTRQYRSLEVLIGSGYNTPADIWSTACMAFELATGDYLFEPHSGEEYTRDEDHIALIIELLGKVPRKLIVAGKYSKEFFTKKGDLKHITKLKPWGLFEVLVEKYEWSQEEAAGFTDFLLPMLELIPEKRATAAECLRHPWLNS
Description: Cellular target engagement assay with: SRPK1

[7] = molecular target: SRSF protein kinase 2 (Homo sapiens) (UniProt P78362); conditions: HEK-293T, NanoBRET Ttracer MW375
Sequence of SRSF protein kinase 2 (Homo sapiens) (P78362 whole entry, looked up, the tested form may be a part): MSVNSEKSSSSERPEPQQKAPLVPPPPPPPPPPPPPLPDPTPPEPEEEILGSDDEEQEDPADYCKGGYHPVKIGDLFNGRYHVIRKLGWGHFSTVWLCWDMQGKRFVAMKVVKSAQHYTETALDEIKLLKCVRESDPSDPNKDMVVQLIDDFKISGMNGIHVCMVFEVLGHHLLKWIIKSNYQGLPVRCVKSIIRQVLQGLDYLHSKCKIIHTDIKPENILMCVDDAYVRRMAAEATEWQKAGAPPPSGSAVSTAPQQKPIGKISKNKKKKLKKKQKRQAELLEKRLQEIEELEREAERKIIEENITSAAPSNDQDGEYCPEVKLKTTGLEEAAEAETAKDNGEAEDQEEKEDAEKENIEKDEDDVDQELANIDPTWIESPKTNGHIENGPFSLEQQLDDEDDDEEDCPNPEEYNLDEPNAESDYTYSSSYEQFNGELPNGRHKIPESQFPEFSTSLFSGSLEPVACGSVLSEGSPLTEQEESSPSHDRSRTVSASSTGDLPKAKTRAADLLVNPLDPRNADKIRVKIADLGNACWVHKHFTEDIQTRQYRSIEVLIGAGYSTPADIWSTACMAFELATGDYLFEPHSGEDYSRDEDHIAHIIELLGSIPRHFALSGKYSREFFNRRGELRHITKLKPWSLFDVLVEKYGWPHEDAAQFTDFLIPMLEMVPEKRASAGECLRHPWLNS
Description: Cellular target engagement assay with: SRPK2

[8] = molecular target: Epithelial discoidin domain-containing receptor 1 (Homo sapiens) (UniProt Q08345); assay: Cellular target engagement assay with: DDR1; set-up: cell line HEK293T; conditions: HEK-293T, NanoBRET Ttracer Tracer K4
Sequence of Epithelial discoidin domain-containing receptor 1 (Homo sapiens) (Q08345 whole entry, the tested form may be a part): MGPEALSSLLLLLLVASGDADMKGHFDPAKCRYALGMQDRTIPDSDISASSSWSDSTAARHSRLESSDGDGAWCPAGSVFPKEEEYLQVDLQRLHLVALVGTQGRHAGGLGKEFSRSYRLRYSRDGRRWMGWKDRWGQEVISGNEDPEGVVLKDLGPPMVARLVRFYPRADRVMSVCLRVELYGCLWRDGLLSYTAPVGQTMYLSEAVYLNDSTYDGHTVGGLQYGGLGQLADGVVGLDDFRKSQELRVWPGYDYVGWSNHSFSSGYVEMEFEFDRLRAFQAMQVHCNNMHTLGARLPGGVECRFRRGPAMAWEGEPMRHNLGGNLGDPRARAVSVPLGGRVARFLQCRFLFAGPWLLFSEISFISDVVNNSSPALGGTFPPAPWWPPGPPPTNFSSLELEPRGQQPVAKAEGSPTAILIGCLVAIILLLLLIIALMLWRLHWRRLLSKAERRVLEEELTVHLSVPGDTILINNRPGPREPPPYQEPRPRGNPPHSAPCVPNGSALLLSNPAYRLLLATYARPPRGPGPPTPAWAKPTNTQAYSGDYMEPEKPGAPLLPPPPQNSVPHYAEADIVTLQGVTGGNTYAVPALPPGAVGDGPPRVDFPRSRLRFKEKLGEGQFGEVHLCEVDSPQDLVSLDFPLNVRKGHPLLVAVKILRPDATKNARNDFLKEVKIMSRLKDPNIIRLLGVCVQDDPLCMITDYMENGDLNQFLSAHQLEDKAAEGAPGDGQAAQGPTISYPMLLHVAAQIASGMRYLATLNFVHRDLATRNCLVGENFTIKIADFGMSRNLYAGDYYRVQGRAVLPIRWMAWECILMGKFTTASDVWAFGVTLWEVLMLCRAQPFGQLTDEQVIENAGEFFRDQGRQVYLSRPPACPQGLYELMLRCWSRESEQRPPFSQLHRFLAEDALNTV

[9] = molecular target: T4, Discoidin domain-containing receptor 2 (Homo sapiens) (UniProt Q16832); assay: Cellular target engagement assay with: DDR2; set-up: cell line HEK293T; conditions: HEK-293T, NanoBRET Ttracer Tracer K4
T4 sequence (whole entry): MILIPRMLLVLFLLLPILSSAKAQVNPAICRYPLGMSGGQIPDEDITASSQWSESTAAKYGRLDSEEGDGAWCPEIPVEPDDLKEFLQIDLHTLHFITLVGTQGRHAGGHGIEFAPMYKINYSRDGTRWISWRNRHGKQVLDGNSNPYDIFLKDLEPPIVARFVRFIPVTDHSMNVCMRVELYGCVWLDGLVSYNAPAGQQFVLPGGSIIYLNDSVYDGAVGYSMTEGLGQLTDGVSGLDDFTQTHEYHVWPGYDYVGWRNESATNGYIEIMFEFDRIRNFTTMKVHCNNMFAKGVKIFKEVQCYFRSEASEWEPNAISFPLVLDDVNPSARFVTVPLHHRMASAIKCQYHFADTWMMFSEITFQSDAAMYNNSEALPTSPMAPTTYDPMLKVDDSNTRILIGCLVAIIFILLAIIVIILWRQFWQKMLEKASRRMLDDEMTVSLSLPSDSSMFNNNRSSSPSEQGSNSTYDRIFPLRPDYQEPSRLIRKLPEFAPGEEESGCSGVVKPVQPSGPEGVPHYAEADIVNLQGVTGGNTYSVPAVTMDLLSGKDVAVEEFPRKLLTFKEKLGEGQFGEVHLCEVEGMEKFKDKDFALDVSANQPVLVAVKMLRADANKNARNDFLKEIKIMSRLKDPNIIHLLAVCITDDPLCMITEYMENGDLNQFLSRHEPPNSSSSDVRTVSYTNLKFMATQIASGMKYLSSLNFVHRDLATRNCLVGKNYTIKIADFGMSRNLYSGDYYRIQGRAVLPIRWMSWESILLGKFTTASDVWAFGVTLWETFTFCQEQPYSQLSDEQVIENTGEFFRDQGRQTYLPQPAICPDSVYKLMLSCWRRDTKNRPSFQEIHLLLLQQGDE

[10] = molecular target: Mitogen-activated protein kinase 11 (Homo sapiens) (UniProt Q15759); assay: Cellular target engagement assay with: MAPK11; set-up: cell line HEK293T; conditions: HEK-293T, NanoBRET Ttracer Tracer K10
Sequence of Mitogen-activated protein kinase 11 (Homo sapiens) (Q15759 whole entry): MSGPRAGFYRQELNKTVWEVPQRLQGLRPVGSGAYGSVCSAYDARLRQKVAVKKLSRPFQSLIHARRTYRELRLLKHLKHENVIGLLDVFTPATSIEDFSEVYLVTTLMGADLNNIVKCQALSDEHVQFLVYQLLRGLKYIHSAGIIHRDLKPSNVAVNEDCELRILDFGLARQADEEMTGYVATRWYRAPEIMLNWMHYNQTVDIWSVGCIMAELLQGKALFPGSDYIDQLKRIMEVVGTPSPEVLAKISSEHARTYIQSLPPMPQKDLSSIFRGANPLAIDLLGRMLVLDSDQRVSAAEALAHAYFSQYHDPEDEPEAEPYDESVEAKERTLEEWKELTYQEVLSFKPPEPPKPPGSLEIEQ

[11] = molecular target: Mitogen-activated protein kinase 14 (Homo sapiens) (UniProt Q16539); assay: Cellular target engagement assay with: MAPK14; set-up: cell line HEK293T; conditions: HEK-293T, NanoBRET Ttracer Tracer K10
Sequence of Mitogen-activated protein kinase 14 (Homo sapiens) (Q16539 whole entry): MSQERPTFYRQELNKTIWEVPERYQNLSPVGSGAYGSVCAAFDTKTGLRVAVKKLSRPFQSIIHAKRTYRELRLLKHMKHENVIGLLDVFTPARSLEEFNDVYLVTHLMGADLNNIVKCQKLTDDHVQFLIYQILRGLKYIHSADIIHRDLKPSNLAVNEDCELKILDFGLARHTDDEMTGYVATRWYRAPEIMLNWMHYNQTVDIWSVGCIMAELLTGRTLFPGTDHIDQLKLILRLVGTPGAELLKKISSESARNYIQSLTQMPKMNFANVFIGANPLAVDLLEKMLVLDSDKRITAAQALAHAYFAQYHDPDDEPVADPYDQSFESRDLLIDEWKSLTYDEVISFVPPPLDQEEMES

Row | SMILES | LogIC50 [1] | IC50 [2] [nM] | ΔTm (Peregrin (Homo sapiens) [3]) [c] | ΔTm [4] [c] | ΔTm (Peregrin (Homo sapiens) [5]) [c] | LogIC50 [6] | LogIC50 [7] | LogIC50 [8] | LogIC50 [9] | LogIC50 [10] | LogIC50 [11]
1 | O=C(NCCCN1CCOC1=O)c1cnc(NCc2cc(Br)ccc2Br)nc1NC1CCCC1 | -7 | 80 | 0 | 0 |  |  |  |  |  |  | 
2 | CN(c1ncccc1CNc1ccnc(-c2nc3c(F)c(Cl)ccc3[nH]2)n1)S(C)(=O)=O |  |  |  | 0.31 | -1.19 | -7 | -7 |  |  |  | 
3 | CS(=O)(=O)N1CCCC(NC(=O)[C@H](CCC2CCCCC2)NC(=O)c2ccc(CNC(=O)c3cnc4ccccn34)cc2)C1 (some centres undefined) |  |  | -0.163 | -0.0946 |  |  |  | -8 | -8 | -7 | -7
